Legend:
[1] = target: T1, epitope-tagged (histidine6) recombinant MKP-1 (Homo sapiens, UniProt P28562); assay: MKP-1 phosphatase inhibition; assay type: biochemical
T1 sequence (P28562 1-367): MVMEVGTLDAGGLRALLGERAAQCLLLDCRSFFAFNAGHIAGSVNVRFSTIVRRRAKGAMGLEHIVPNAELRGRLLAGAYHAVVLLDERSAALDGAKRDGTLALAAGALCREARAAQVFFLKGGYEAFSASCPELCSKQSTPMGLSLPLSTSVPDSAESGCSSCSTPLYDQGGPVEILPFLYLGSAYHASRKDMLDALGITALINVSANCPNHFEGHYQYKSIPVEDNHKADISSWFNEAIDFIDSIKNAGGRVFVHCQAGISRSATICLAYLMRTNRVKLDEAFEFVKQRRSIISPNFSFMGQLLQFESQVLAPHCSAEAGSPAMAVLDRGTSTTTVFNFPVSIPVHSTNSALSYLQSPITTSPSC

[2] = target: T2, epitope-tagged (histidine6) catalytic domain of human recombinant Cdc25B (Homo sapiens, UniProt P30305); assay: Cdc25B phosphatase inhibition, catalytic domain; assay type: biochemical; conditions: for Cdc25B activity in words: structure-activity discussion; for selectivity for Cdc25B as opposed to MKP-1 and MKP-3, in words: comparison of Cdc25B, MKP-1, MKP-3 assays
T2 sequence (P30305 275-539 isoform P30305-3): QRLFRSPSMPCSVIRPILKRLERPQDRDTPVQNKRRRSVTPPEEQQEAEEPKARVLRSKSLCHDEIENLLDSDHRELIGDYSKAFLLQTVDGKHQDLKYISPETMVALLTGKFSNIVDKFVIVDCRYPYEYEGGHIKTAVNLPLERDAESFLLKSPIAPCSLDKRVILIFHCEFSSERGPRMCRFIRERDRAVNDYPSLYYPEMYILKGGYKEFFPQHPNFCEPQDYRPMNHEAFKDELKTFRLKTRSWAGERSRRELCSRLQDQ

Row | selectivity for Cdc25B as opposed to MKP-1 and MKP-3, in words [2] | SMILES | IC50 [1] | Cdc25B activity in words [2]
1 |  | O=C1c2cc3c(cc2C(=O)C2OC12)CCCC3 (centres unmarked) [Compound 8] | > 50 µM | 
2 |  | O=C1C=CC(=O)C=C1 [Compound 10, 1,4-benzoquinone] | > 50 µM | complete loss of enzyme activity
3 |  | O=C1c2ccccc2C(=O)c2ccccc21 [Compound 12, 9,10-anthraquinone] | > 50 µM | 
4 | moderately selective for Cdc25B | O=C1C2=C(C(=O)c3ccccc31)S(=O)(=O)CCN2 [Compound 16] |  | 
5 | moderately selective for Cdc25B | O=C1C2=C(C(=O)c3c(O)cccc31)S(=O)(=O)CCN2 [Compound 17] |  | 
6 |  | O=C1C=C(NCCO)C(=O)c2ccccc21 [Compound 18] | > 50 µM | complete loss of activity
7 |  | CC1=C(NCCO)C(=O)c2ccccc2C1=O [Compound 19] | > 50 µM | complete loss of activity
8 | relatively non-selective | CCOC1=CC(=O)C(=O)c2ccccc21 [Compound 20] |  | 

— publication PMC2860877 (Bioorganic & medicinal chemistry, 2008)
